Assay results taken from patent US20170218449A1, “ANALYTICAL METHODS AND ARRAYS FOR USE IN THE SAME” (SENZAGEN AB, priority 2010, published 2017).
Values after ≈ are worked out from the molar mass of the structure shown. Like-named read-outs stand apart in the source and are kept apart here.

Legend:
[1] = tested on: draining lymph nodes of mice; details: cited from earlier work
[2] = tested on: CD86; experiment: CD86 cell surface expression by flow cytometry after chemical stimulation; type: cell-based, human; details: 24 h stimulation, frequency of CD86-positive cells, paired Student's t test
Description: Cell surface expression levels of CD86 were monitored after stimulation with chemicals for 24 h. FIG. 2A). Chemical-induced upregulation of CD86, in terms of changes in frequency of positive cells, were determined by flow cytometry, as exemplified by the comparison of 2-aminophenol-stimulated cells (right dotplot) and unstimulated controls (left dotplot). Results are shown from one representative experiment out of three. Gates were set to exclude debris and dead cells, and quadrants were established by comparing with relevant isotype controls. FIG. 2B) Compilation of frequencies of CD86-positive cells after 24 h of stimulation. Statistical analysis was performed using paired Student's t test. *p<0.05, # p<0.01. NA, not analysed.
CD86 is the most extensively studied biomarker for sensitization to date, in cell-systems such as monocyte derived dendritic cells (MoDCs) or dendritic cell-like human cell lines and their progenitors, such as THP-1, U-937 and KG-1. Thus, as a reference, cell surface expression of CD86 was measured with flow cytometry after 24h stimulation with 20 sensitizers and 20 non-sensitizers, as well as with vehicle controls (Table 1). […]. […] Consequently, CD86 cannot classify skin sensitizers, using a cell based system such as MUTZ-3.
The human myeloid leukaemia-derived cell line MUTZ-3 (DSMZ, Braunschweig, Germany) was maintained in a-MEM (Thermo Scientific Hyclone, Logan, Utah) supplemented with 20% (volume/volume) fetal calf serum (Invitrogen, Carlsbad, Calif.) and 40 ng/ml rhGM-CSF (Bayer HealthCare Pharmaceuticals, Seattle, Wash.), as described. Prior to each experiment, the cells were immunophenotyped using flow cytometry as a quality control. Cells were seeded in 6-well plates at 200.000 cells/ml. Stock solutions of each compound was prepared in either DMSO or distilled water, and were subsequently diluted so the in-well concentrations corresponded to the Rv90 value, and in-well concentrations of DMSO were 0.1%. Cells were incubated for 24h at 37° C. and 5% CO2. Thereafter, cells were harvested and analysed with flow cytometry. In parallel, harvested cells were lysed in TRIzol reagent (Invitrogen) and stored at −20° C. until RNA extraction. Stimulations with chemicals were performed in three individual experiments, so that triplicates samples were obtained.
All cell surface staining and washing steps was performed in PBS containing 1% BSA (w/v). Cells were incubated with specific mouse mAbs for 15 min at 4° C. The following mAbs were used for flow cytometry: FITC-conjugated CD1a (DakoCytomation, Glostrup, Denmark), CD34, CD86, and HLA-DR (BD Biosciences), PE-conjugated CD14 (DakoCytomation), CD54 and CD80 (BD Biosciences). Mouse IgG1, conjugated to FITC or PE were used as isotype controls and PI was used to assess cell viability (BD Biosciences). FACSDiva software was used for data acquisition with FACSCanto II instrument (BD Bioscience). 10,000 events were acquired and gates were set based on light scatter properties to exclude debris and nonviable cells. Further data analysis was performed using FCS Express V3 (De Novo Software, Los Angeles, Calif.).

[3] = tested on: MUTZ-3 cells; experiment: transcriptional profiling (Affymetrix Human Gene 1.0 ST arrays) with PCA of chemically stimulated cells; type: cell-based
Description: The genomic expression arrays were used to test 20 sensitizers and 20 non-sensitizers, in triplicates, and vehicle controls such as DMSO and distilled water, the latter in twelve replicates.
The human myeloid leukaemia-derived cell line MUTZ-3 (DSMZ, Braunschweig, Germany) was maintained in a-MEM (Thermo Scientific Hyclone, Logan, Utah) supplemented with 20% (volume/volume) fetal calf serum (Invitrogen, Carlsbad, Calif.) and 40 ng/ml rhGM-CSF (Bayer HealthCare Pharmaceuticals, Seattle, Wash.), as described [10]. Prior to each experiment, the cells were immunophenotyped using flow cytometry as a quality control. Cells were seeded in 6-well plates at 200.000 cells/ml. Stock solutions of each compound was prepared in either DMSO or distilled water, and were subsequently diluted so the in-well concentrations corresponded to the Rv90 value, and in-well concentrations of DMSO were 0.1%. Cells were incubated for 24h at 37° C. and 5% CO2. Thereafter, cells were harvested and analysed with flow cytometry. In parallel, harvested cells were lysed in TRIzol reagent (Invitrogen) and stored at −20° C. until RNA extraction. Stimulations with chemicals were performed in three individual experiments, so that triplicates samples were obtained.
RNA isolation and gene chip hybridization was performed as described [22]. […] The preparation of labeled sense DNA was performed according to Affymetrix GeneChip Whole Transcript (WT) Sense Target Labeling Assay (100 ng Total RNA Labeling Protocol) using the recommended kits and controls (Affymetrix, Santa Clara, Calif.). Hybridization, washing and scanning of the Human Gene 1.0 ST Arrays were performed according to the manufacturer's protocol (Affymetrix).
The microarray data were normalised and quality checked with the RMA algorithm, using Affymetrix Expression Console (Affymetrix).

[4] = tested on: MUTZ-3 cells; experiment: cytotoxicity by Propidium Iodide, relative viability (Rv90)
Description: A panel of chemicals consisting of 20 sensitizers and 20 non-sensitizers were used for cell stimulations. […] All chemicals were from Sigma-Aldrich, St. Louis, Mo., USA. Compounds were dissolved in either Dimethyl sulfoxide (DMSO) or distilled water. Prior to stimulations, the cytotoxicity of all compounds were monitored, using Propidium Iodide (PI) (BD Biosciences, San Diego, Calif.) using protocol provided by the manufacturer. The relative viability of stimulated cells was calculated as
For toxic compounds, the concentration yielding 90% relative viability (Rv90) was used. For untoxic compounds, a concentration of 500 μM was used when possible. For non-toxic compounds that were insoluble at 500 μM in medium, the highest soluble concentration was used. For compounds dissolved in DMSO, the in-well concentration was 0.1% DMSO.

[5] = Max solubility in medium; details: vehicle DMSO or water
[6] = tested on: human; details: in vivo; cited from earlier work
[7] = tested on: human; details: in vivo; cited from earlier work; remark: listed apart in the source
[8] = physchem; details: plasma or biological fluid, kinetic from dmso stock
[9] = sensitizing potency category based on murine LLNA classification
[10] = concentration yielding 90% relative viability, PI staining
[11] = 24 h stimulation, one or more replicate

SMILES | Potency [1, 9] | CD86 cell surface expression [2] | PCA grouping, 1137 genes (comparing the different stimulations), FIG. 3D ([3]; 24 h stimulation, triplicates) | PCA grouping, 1010 transcripts (sensitizing vs. non-sensitizing ANOVA), FIG. 3B [3, 11] | also measured
O=[N+]([O-])c1ccc(Cl)c([N+](=O)[O-])c1 [2,4-Dinitrochlorobenzene] | Extreme [15] | significantly up-regulated | replicates that group together, separate from the negative group |  | Rv90 [4, 10]: 4 µM
Nc1ccccc1O [2-Aminophenol] | Strong [27] | significantly up-regulated |  |  | PCA grouping, 1137 genes (comparing the different stimulations), FIG. 3D [3]: replicates that group together, separate from the negative group; Rv90 [4, 10]: 100 µM
C=CC(=O)OCCO [2-Hydroxyethyl acrylate] |  | significantly up-regulated | replicates that group together, separate from the negative group |  | Rv90 [4, 10]: 100 µM
Sc1nc2ccccc2s1 [2-Mercaptobenzothiazole] | Moderate [27] | significantly up-regulated | replicates that group together, separate from the negative group |  | 
Nc1ccc(N)c([N+](=O)[O-])c1 [2-nitro-1,4-Phenylendiamine] |  | significantly up-regulated | replicates that group together, separate from the negative group |  | 
O=Cc1ccccc1 [Benzaldehyde] |  |  |  |  | Max solubility [5]: 250 µM
O=CC=Cc1ccccc1 [Cinnamaldehyde] |  | significantly up-regulated |  |  | HPTA [6]: +; HMT [7]: +; Rv90 ([4]; human): 120 µM
OC/C=C/c1ccccc1 [Cinnamic alcohol] | Weak [27] |  | replicates that group together, separate from the negative group |  | 
NCCN [Ethylendiamine] | Moderate [14] |  |  | group together with the control group | 
C=CCc1ccc(O)c(OC)c1 [Eugenol] | Weak [28] |  |  | group together with the control group | Rv90 ([4]; human): 300 µM
C=O [Formaldehyde] |  |  |  |  | Potency ([1]; mouse, in vivo): Strong [15]; Rv90 ([4]; human): 80 µM
O=CC=O [Glyoxal] |  |  |  | group together with the control group | Potency ([1]; mouse, in vivo): Moderate [27]; Rv90 [4, 10]: 300 µM
CCCCCCC(C=O)=Cc1ccccc1 [Hexylcinnamic aldehyde] | Moderate [15] |  |  | group together with the control group | 
CC=Cc1ccc(O)c(OC)c1 [Isoeugenol] | Moderate [28] |  |  | group together with the control group | Rv90 ([4]; human): 300 µM
CCCCCCCC(=O)O [Octanoic acid] |  |  |  | tend to group with the sensitizers | 
CCO/C=C1\N=C(c2ccccc2)OC1=O [Oxazolone] |  |  |  |  | Potency ([1]; mouse, in vivo): Extreme [15]
CC1(C)S[C@@H]2[C@H](NC(=O)Cc3ccccc3)C(=O)N2[C@H]1C(=O)O [Penicillin G] | Weak [28] |  |  | group together with the control group | 
Oc1ccccc1 [Phenol] |  |  |  |  | PCA grouping, 1010 transcripts (sensitizing vs. non-sensitizing ANOVA), FIG. 3B [3]: tend to group with the sensitizers
[K+].[K+].[O]=[Cr](=[O])([O-])[O][Cr](=[O])(=[O])[O-] [Potassium dichromate] | Extreme [14] |  |  |  | PCA grouping, 1137 genes (comparing the different stimulations), FIG. 3D [3]: discrete profile
Oc1cccc(O)c1 [Resorcinol] | Moderate [29] | significantly up-regulated | replicates that group together, separate from the negative group | group together with the control group | 
CCCCCCCCCCCCOS(=O)(=O)[O-].[Na+] [Sodium dodecyl sulphate] |  |  |  |  | Rv90 [4, 10]: 200 µM
CCCCCCCC/C=C\CCCCCCCC(=O)OCCOCC(OCCO)C1OCC(OCCO)C1OCCO (centres unmarked) [Tween 80] |  |  |  | tend to group with the sensitizers | 
Nc1ccc(N)cc1 [p-Phenylendiamine] | Strong [28] | significantly up-regulated | replicates that group together, separate from the negative group |  | solubility [8]: 566 µM (≈ 61.2 µg/mL); Rv90 [4, 10]: 75 µM
